Data: BindingDB's records for doi:10.7270/Q2R78CMH (Sanford-Burnham Center for Chemical Genomics, 2008)

Target: T1, Bcl-2-like protein 10 (Homo sapiens, UniProt Q9HD36)
T1 sequence (Q9HD36 whole entry): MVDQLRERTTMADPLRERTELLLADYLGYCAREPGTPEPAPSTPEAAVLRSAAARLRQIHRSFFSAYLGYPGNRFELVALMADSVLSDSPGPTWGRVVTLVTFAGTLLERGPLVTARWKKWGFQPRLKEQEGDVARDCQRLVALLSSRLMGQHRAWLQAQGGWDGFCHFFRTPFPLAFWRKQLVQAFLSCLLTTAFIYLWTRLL
Experiment: Biochemical fluorescence polarization EC50 measurement of human Bcl-2-like protein 10 inhibition, TR3-derived (AID 1243)

SMILES	EC50
O=C(O)c1cccc(-c2ccc(CN=Nc3ccc([N+](=O)[O-])cn3)o2)c1	9.64 µM
Clc1ccc(C2CC(c3ccccc3)=Nc3ncnn32)cc1 (stereo unspecified) [7-(4-chlorophenyl)-5-phenyl-1,7-dihydro-[1,2,4]triazolo[1,5-a]pyrimidine]	14.2 µM
COc1ccccc1NC(=O)C1=C(C)N=C(SCC(=O)c2ccc(Br)cc2)C(C#N)C1c1ccco1 (stereo unspecified) [BIM-0025022.P001]	6.24 µM
O=C1c2ccccc2C(O)C12N=Nc1n[nH]c(=S)n1N2 (stereo unspecified) [BIM-0026580.P001]	23.8 µM

The next compounds have a lower EC50 than those just listed; values first:

EC50	SMILES
5.7 µM	O=C1C=CC(=O)C(C(C=NCc2ccccc2)[N+](=O)[O-])=C1 (stereo unspecified) [BIM-0048185.P001]
1.65 µM	C=c1c(C#N)c2[nH]c(N)c(C#N)c(C)c-2c1=Cc1ccc(-c2ccc(C(=O)O)c(Cl)c2)o1
